The text below walks through data of patent publication US20080009418A1, “Selective Inhibitors” (Alchemia LTD., priority 2004, published 2008).

The target of experiment [1] is T1, Human neurokinin (NK1) (Homo sapiens, UniProt P25103).
T1 construct: purchased Perkin Elmer Biosignal
Put plainly: Radioligand binding, human neurokinin NK1 membranes, filtration, [125I]-Substance P. The following applies: compound at 10 μM; [125I]-Substance P. A digest of the protocol: (§1)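 Membranes from cloned human receptors were incubated with compound and radioligand for 1 hour at room temperature. Bound ligand was collected on 0.3% PEI-soaked filters, washed with cold 50 mM Tris-HCl pH 7.4, and counted by scintillation. Percent inhibition was computed against DMSO totals and reference-ligand nonspecific wells.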

Experiment [2] has as its target T2, Human Melanocortin (MC4) (Homo sapiens, UniProt P32245).
T2 construct: purchased Perkin Elmer Biosignal
Briefly: Radioligand binding, human melanocortin MC4 membranes, FlashPlate, [125I]-NDP-αMSH. The following applies: compound at 10 μM; [125I]-NDP-αMSH. The gist of the method: (§2)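 Cloned human receptor membranes were coated onto FlashPlate wells and incubated with radioligand and compound (added from a 0.5 mM DMSO daughter plate) for 1 hour at room temperature in the dark. Scintillation counting gave percent inhibition, with DMSO defining total and reference ligand defining non-specific binding.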

The target in experiment [3] is T3, Human opioid (ORL1) (Homo sapiens, UniProt P41146).
T3 construct: purchased Perkin Elmer Biosignal
T3 sequence (P41146 whole entry): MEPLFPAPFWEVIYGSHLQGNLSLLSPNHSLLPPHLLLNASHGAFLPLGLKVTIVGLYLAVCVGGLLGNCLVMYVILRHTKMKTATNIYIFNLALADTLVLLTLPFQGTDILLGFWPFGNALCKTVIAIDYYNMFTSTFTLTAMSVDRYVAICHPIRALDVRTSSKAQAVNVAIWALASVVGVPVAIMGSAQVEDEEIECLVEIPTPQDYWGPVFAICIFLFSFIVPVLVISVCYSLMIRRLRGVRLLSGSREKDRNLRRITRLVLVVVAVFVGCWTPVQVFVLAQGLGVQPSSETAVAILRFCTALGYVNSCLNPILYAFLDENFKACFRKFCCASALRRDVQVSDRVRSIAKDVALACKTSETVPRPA
Put plainly: Radioligand binding, human opioid ORL1 membranes, FlashPlate, [125I]-Nociceptin. The conditions noted are these: compound at 10 μM; [125I]-Nociceptin. A digest of the protocol: as §2

Experiment [4] addresses T4, Human melanin-concentrating hormone (MCH1) (Homo sapiens, UniProt Q99705).
T4 construct: purchased Perkin Elmer Biosignal
Put plainly: Radioligand binding, human melanin-concentrating hormone MCH1 membranes, FlashPlate, [125I]-S36057. The following applies: compound at 10 μM; [125I]-S36057. A digest of the protocol: as §2

The target of experiment [5] is T5, Human Melanocortin (MC3) (Homo sapiens, UniProt P41968).
T5 construct: purchased Perkin Elmer Biosignal
T5 sequence (P41968 whole entry): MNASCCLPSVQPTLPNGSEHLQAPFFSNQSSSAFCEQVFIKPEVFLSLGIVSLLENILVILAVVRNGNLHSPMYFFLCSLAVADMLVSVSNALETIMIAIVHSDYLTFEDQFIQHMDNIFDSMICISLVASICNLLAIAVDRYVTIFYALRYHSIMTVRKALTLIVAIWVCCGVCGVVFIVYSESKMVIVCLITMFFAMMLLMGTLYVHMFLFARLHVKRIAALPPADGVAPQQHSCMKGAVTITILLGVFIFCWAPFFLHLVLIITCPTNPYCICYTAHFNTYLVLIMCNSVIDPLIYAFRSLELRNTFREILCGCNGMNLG
Put plainly: Radioligand binding, human melanocortin MC3 membranes, FlashPlate, [125I]-NDP-αMSH. The following applies: compound at 10 μM; [125I]-NDP-αMSH. A digest of the protocol: as §2

Experiment [6] deals with T6, Human melanocortin (MC5) (Homo sapiens, UniProt P33032).
T6 construct: purchased Perkin Elmer Biosignal
T6 sequence (P33032 whole entry): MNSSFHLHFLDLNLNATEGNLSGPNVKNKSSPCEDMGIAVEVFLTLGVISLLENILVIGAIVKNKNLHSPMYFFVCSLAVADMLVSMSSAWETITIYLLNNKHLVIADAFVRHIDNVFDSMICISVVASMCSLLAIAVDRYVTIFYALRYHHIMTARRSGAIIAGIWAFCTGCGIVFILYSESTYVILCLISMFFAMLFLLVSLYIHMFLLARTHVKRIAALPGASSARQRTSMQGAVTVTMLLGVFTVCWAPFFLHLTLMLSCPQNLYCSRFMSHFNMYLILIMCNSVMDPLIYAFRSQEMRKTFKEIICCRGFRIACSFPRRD
Briefly: Radioligand binding, human melanocortin MC5 membranes, FlashPlate, [125I]-NDP-αMSH. The following applies: compound at 10 μM; [125I]-NDP-αMSH. The gist of the method: as §2

Experiment [7] deals with T7, Human κ-Opioid (KOP) (Homo sapiens, UniProt P41145).
T7 construct: purchased Perkin Elmer Biosignal
T7 sequence (P41145 whole entry): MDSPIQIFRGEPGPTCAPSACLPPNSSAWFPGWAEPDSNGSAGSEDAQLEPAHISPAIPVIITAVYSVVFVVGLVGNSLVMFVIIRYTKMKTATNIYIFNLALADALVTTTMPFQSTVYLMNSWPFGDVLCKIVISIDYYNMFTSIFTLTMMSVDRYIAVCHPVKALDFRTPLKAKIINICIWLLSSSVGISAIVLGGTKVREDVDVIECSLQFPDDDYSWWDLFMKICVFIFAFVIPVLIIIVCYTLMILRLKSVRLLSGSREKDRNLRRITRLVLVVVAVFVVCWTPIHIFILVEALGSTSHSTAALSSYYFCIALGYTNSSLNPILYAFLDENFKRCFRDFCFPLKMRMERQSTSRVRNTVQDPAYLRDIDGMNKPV
Put plainly: Radioligand binding, human κ-opioid (KOP) membranes, filtration, [3H]-Diprenorphine. The following applies: compound at 10 μM; [3H]-Diprenorphine. A digest of the protocol:
as §1

Experiment [8] addresses T8, Mouse urotensin (mUR2) (Mus musculus, UniProt Q8VIH9).
T8 construct: purchased Perkin Elmer Biosignal
T8 sequence (Q8VIH9 1-385): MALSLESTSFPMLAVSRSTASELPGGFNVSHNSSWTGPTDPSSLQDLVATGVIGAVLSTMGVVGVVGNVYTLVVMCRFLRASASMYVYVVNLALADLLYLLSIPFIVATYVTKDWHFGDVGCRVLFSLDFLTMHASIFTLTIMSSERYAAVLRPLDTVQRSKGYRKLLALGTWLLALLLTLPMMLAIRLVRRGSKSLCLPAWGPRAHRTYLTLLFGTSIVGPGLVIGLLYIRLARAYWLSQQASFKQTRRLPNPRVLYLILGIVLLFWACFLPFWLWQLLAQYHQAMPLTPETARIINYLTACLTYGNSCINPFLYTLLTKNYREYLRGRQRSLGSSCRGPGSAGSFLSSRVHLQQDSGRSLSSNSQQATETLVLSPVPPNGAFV
Put plainly: Radioligand binding, mouse urotensin mUR2 membranes, FlashPlate, [125I]-Urotensin II. The following applies: compound at 10 μM; [125I]-Urotensin II. A digest of the protocol:
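Cloned mouse urotensin (mUR2) receptor membranes from Perkin Elmer Biosignal were immobilized in FlashPlate microplates using a proprietary coating. Each well got 19.5 μl buffer, then 0.5 μl of DMSO, reference ligand, or compound. Adding 5 μl of [125I]-Urotensin II, diluted to 5× final concentration in binding buffer, started binding. Plates were sealed with TopSeal-A and incubated 1 hour at room temperature in the dark. Wells were counted for 30 seconds each on a TopCount after a 60-second delay, and percentage inhibition was calculated.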

For experiment [9], the target named is T9, Human μ-opioid (MOP) (Homo sapiens, UniProt P35372).
T9 construct: purchased Perkin Elmer Biosignal
T9 sequence (P35372 whole entry): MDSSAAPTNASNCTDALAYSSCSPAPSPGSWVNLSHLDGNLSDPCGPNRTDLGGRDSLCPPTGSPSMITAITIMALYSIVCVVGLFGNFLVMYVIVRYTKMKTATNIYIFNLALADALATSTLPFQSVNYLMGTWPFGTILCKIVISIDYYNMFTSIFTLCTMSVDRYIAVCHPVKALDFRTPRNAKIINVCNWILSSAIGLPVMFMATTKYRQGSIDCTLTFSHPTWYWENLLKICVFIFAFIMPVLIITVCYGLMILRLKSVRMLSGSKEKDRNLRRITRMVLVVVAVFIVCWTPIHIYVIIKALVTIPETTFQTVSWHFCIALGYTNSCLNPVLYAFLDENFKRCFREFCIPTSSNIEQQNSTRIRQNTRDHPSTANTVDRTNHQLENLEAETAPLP
Briefly: Radioligand binding, human μ-opioid (MOP) membranes, FlashPlate, [3H]-Naloxone. The conditions noted are these: compound at 10 μM; [3H]-Naloxone. The gist of the method: as §2

For experiment [10], the target named is T10, Human δ-opioid (DOP) (Homo sapiens, UniProt P41143).
T10 construct: purchased Perkin Elmer Biosignal
T10 sequence (P41143 whole entry): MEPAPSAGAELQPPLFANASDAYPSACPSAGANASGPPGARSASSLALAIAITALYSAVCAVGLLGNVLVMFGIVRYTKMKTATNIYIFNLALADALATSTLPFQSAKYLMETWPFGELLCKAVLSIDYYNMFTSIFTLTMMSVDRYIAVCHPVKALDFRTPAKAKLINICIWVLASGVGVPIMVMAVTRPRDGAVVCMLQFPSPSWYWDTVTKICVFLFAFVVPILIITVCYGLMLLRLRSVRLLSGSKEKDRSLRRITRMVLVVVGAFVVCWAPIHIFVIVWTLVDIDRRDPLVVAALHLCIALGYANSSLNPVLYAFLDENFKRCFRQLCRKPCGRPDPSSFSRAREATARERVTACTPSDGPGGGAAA
Put plainly: Radioligand binding, human δ-opioid (DOP) membranes, FlashPlate, [3H]-Bremazocine. The conditions noted are these: compound at 10 μM; [3H]-Bremazocine. The gist of the method: as §2

Experiment [11] addresses T11, Human neuropeptide Y (NPY-Y1) (Homo sapiens, UniProt P25929).
T11 construct: purchased Perkin Elmer Biosignal
T11 sequence (P25929 1-384): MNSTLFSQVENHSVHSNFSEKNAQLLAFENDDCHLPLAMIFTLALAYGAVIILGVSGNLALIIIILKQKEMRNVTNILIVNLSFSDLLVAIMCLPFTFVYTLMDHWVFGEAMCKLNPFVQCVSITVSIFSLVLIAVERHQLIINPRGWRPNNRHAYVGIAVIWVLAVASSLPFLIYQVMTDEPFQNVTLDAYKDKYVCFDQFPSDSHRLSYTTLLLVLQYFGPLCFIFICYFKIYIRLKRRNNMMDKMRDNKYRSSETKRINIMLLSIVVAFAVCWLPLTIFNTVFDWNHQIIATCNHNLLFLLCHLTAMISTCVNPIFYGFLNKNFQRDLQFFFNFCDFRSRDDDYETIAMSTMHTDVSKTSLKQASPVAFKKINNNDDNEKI
Put plainly: Radioligand binding, human neuropeptide Y NPY-Y1 membranes, FlashPlate, [125I]-PYY. The following applies: compound at 10 μM; [125I]-PYY. A digest of the protocol:
as §2

T4 sequence (Q99705 whole entry): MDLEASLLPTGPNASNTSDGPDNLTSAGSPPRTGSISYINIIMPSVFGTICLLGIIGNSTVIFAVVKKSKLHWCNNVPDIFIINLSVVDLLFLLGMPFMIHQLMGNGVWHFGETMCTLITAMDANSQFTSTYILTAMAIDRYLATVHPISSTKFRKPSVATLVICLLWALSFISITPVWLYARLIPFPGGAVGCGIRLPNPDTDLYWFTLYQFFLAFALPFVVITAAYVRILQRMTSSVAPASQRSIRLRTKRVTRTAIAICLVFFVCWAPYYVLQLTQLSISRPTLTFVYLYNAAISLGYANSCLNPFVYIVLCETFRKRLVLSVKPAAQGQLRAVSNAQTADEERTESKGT
T2 sequence (P32245 whole entry): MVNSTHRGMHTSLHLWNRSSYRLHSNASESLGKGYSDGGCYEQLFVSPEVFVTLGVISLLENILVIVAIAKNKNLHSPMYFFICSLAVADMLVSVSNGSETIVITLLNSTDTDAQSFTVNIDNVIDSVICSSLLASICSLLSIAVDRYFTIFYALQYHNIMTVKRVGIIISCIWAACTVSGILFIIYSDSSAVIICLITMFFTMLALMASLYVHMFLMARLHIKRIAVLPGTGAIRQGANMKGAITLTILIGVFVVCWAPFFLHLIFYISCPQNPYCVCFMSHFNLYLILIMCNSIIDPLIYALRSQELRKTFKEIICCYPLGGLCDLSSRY
T1 sequence (P25103 whole entry): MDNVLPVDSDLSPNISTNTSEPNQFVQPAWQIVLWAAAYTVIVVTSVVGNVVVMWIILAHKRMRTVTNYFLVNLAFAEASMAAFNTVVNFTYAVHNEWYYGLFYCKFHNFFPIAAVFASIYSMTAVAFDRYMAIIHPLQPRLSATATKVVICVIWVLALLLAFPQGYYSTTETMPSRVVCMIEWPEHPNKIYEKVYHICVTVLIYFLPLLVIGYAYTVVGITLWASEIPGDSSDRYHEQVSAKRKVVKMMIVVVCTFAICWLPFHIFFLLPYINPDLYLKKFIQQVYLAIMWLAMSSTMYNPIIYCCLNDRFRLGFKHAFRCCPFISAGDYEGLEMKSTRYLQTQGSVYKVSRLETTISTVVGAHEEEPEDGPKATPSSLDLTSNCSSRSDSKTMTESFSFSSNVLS

With `CO[C@H]1[C@H](O)[C@@H](COCc2ccc(Cl)cc2)OC(OCCc2ccccc2)[C@@H]1NC(=O)CCCN` (stereo partly shown) [compound 121], the “A8 radioligand binding, percentage inhibition” value in experiment [1] is “+ (“+” indicates greater than 50% inhibition at 10 μM)”. Further, in experiment [2], the “A4 radioligand binding, percentage inhibition” value is on record as “− (“−” indicates less than 50% inhibition at 10 μM)”. Besides, in experiment [3], the “A10 radioligand binding, percentage inhibition” value is recorded as “− (“−” indicates less than 50% inhibition at 10 μM)”. For the same molecule, in [4], the “A6 radioligand binding, percentage inhibition” value was “− (“−” indicates less than 50% inhibition at 10 μM)”. In addition, the “A3 radioligand binding, percentage inhibition” value in [5] was “− (“−” indicates less than 50% inhibition at 10 μM)”. In [6], the “A5 radioligand binding, percentage inhibition” value is reported as “+ (“+” indicates greater than 50% inhibition at 10 μM)”. Further, the “A2 radioligand binding, percentage inhibition” value in experiment [7] is listed as “− (“−” indicates less than 50% inhibition at 10 μM)”. The “A11 radioligand binding, percentage inhibition” value in [8] is “− (“−” indicates less than 50% inhibition at 10 μM)”. Moreover, in experiment [9], the “A7 radioligand binding, percentage inhibition” value was “− (“−” indicates less than 50% inhibition at 10 μM)”. The “A1 radioligand binding, percentage inhibition” value in experiment [10] is “− (“−” indicates less than 50% inhibition at 10 μM)”. Moreover, the “A9 radioligand binding, percentage inhibition” value in [11] was “− (“−” indicates less than 50% inhibition at 10 μM)”.
In the case of `CO[C@H]1[C@H](O)[C@@H](COCc2ccc(Cl)cc2)OC(OCCc2ccccc2)[C@@H]1NC(=O)CCCNC(=N)N` (stereo partly shown) [compound 122], the “A8 radioligand binding, percentage inhibition” value in experiment [1] is on record as “+ (“+” indicates greater than 50% inhibition at 10 μM)”. Further, in experiment [2], the “A4 radioligand binding, percentage inhibition” value was “+ (“+” indicates greater than 50% inhibition at 10 μM)”. Also, the “A10 radioligand binding, percentage inhibition” value in experiment [3] is listed as “− (“−” indicates less than 50% inhibition at 10 μM)”. In experiment [4], the “A6 radioligand binding, percentage inhibition” value is “− (“−” indicates less than 50% inhibition at 10 μM)”. The “A3 radioligand binding, percentage inhibition” value in experiment [5] is recorded as “− (“−” indicates less than 50% inhibition at 10 μM)”. In experiment [6], the “A5 radioligand binding, percentage inhibition” value is reported as “+ (“+” indicates greater than 50% inhibition at 10 μM)”. In experiment [7], the “A2 radioligand binding, percentage inhibition” value was “− (“−” indicates less than 50% inhibition at 10 μM)”. The “A11 radioligand binding, percentage inhibition” value in [8] is listed as “− (“−” indicates less than 50% inhibition at 10 μM)”. In addition, the “A7 radioligand binding, percentage inhibition” value in experiment [9] was “− (“−” indicates less than 50% inhibition at 10 μM)”. The “A1 radioligand binding, percentage inhibition” value in experiment [10] is listed as “− (“−” indicates less than 50% inhibition at 10 μM)”. The “A9 radioligand binding, percentage inhibition” value in experiment [11] is on record as “− (“−” indicates less than 50% inhibition at 10 μM)”.
On to `COC[C@H]1OC(OCCNC(=N)N)[C@H](NC(=O)c2ccccc2)[C@@H](OCc2ccc3ccccc3c2)[C@@H]1O` (stereo partly shown) [compound 123], for which the “A8 radioligand binding, percentage inhibition” value in experiment [1] is given as “+ (“+” indicates greater than 50% inhibition at 10 μM)”. In experiment [2], the “A4 radioligand binding, percentage inhibition” value was “− (“−” indicates less than 50% inhibition at 10 μM)”. In addition, the “A10 radioligand binding, percentage inhibition” value in [3] was “− (“−” indicates less than 50% inhibition at 10 μM)”. Also, the “A6 radioligand binding, percentage inhibition” value in experiment [4] was “− (“−” indicates less than 50% inhibition at 10 μM)”. For the same molecule, the “A3 radioligand binding, percentage inhibition” value in [5] is “− (“−” indicates less than 50% inhibition at 10 μM)”. For the same molecule, the “A5 radioligand binding, percentage inhibition” value in experiment [6] is given as “+ (“+” indicates greater than 50% inhibition at 10 μM)”. In experiment [7], the “A2 radioligand binding, percentage inhibition” value is “− (“−” indicates less than 50% inhibition at 10 μM)”. Besides, the “A11 radioligand binding, percentage inhibition” value in experiment [8] is on record as “− (“−” indicates less than 50% inhibition at 10 μM)”. Further, the “A7 radioligand binding, percentage inhibition” value in experiment [9] was “− (“−” indicates less than 50% inhibition at 10 μM)”. Besides, the “A1 radioligand binding, percentage inhibition” value in experiment [10] is “− (“−” indicates less than 50% inhibition at 10 μM)”. The “A9 radioligand binding, percentage inhibition” value in experiment [11] is “− (“−” indicates less than 50% inhibition at 10 μM)”.
As to `CO[C@H]1[C@H](O)[C@@H](COCc2ccc3ccccc3c2)OC(OCCNC(=N)N)[C@@H]1NC(=O)c1ccccc1` (stereo partly shown) [compound 124], the “A8 radioligand binding, percentage inhibition” value in [1] is reported as “+ (“+” indicates greater than 50% inhibition at 10 μM)”. The “A4 radioligand binding, percentage inhibition” value in experiment [2] is reported as “− (“−” indicates less than 50% inhibition at 10 μM)”. The “A10 radioligand binding, percentage inhibition” value in [3] was “− (“−” indicates less than 50% inhibition at 10 μM)”. Moreover, in [4], the “A6 radioligand binding, percentage inhibition” value was “− (“−” indicates less than 50% inhibition at 10 μM)”. Besides, the “A3 radioligand binding, percentage inhibition” value in experiment [5] was “− (“−” indicates less than 50% inhibition at 10 μM)”. Besides, the “A5 radioligand binding, percentage inhibition” value in experiment [6] is given as “+ (“+” indicates greater than 50% inhibition at 10 μM)”. Besides, the “A2 radioligand binding, percentage inhibition” value in experiment [7] is listed as “− (“−” indicates less than 50% inhibition at 10 μM)”. In addition, the “A11 radioligand binding, percentage inhibition” value in experiment [8] is on record as “− (“−” indicates less than 50% inhibition at 10 μM)”. Also, the “A7 radioligand binding, percentage inhibition” value in experiment [9] is recorded as “− (“−” indicates less than 50% inhibition at 10 μM)”. Also, the “A1 radioligand binding, percentage inhibition” value in experiment [10] is on record as “− (“−” indicates less than 50% inhibition at 10 μM)”. In experiment [11], the “A9 radioligand binding, percentage inhibition” value is listed as “− (“−” indicates less than 50% inhibition at 10 μM)”.
For the molecule `CO[C@H]1[C@H](O)[C@@H](COCc2ccccc2)OC(OCCNC(=N)N)[C@@H]1NC(=O)c1c[nH]c2ccccc12` (stereo partly shown) [compound 125], the “A8 radioligand binding, percentage inhibition” value in [1] is “+ (“+” indicates greater than 50% inhibition at 10 μM)”. Besides, in experiment [2], the “A4 radioligand binding, percentage inhibition” value was “− (“−” indicates less than 50% inhibition at 10 μM)”. The “A10 radioligand binding, percentage inhibition” value in experiment [3] is on record as “− (“−” indicates less than 50% inhibition at 10 μM)”. In [4], the “A6 radioligand binding, percentage inhibition” value was “− (“−” indicates less than 50% inhibition at 10 μM)”. Moreover, the “A3 radioligand binding, percentage inhibition” value in [5] is reported as “− (“−” indicates less than 50% inhibition at 10 μM)”. Further, the “A5 radioligand binding, percentage inhibition” value in [6] is given as “− (“−” indicates less than 50% inhibition at 10 μM)”. In addition, the “A2 radioligand binding, percentage inhibition” value in [7] was “− (“−” indicates less than 50% inhibition at 10 μM)”. In addition, in experiment [8], the “A11 radioligand binding, percentage inhibition” value is “− (“−” indicates less than 50% inhibition at 10 μM)”. Further, the “A7 radioligand binding, percentage inhibition” value in [9] is “− (“−” indicates less than 50% inhibition at 10 μM)”. In [10], the “A1 radioligand binding, percentage inhibition” value is “− (“−” indicates less than 50% inhibition at 10 μM)”. Also, the “A9 radioligand binding, percentage inhibition” value in experiment [11] is given as “− (“−” indicates less than 50% inhibition at 10 μM)”.
